These are literature values, as cited in patent US20110117175A1, “SWEET ANALGESIC FOR USE IN MEDICAL PROCEDURES OR TREATMENTS” (priority 2009, published 2011).

SMILES strings stand for the structures.

For data set [1] the following is noted: minimal amount of sugar used.
Data set [2] deals with patients older than infants.
Setting [3] is: 1 to 2 drops on tongue or pacifier.

In the case of `OC[C@H]1O[C@@](CO)(O[C@H]2O[C@H](CO)[C@@H](O)[C@H](O)[C@H]2O)[C@@H](O)[C@@H]1O` [sucrose], in the data set on infant or neonate (setting [3]), the “duration of infant or neonate response” value is on record as “up to 10 minutes” and the “time to infant or neonate response” value was “up to 10 seconds”. Besides, the pain response result in the data set on infant or neonate (infant or neonate, given prior to a painful procedure) is given as “decreases the pain response”. Besides, the blood glucose levels entry in data set [1] is “no increase”. The “use as an analgesic” value in data set [2] (adult patients (studies of adult woman)) was “ineffective”. For the same compound, the pain relief result in data set [2] (patients older than infants) is given as “unsuccessful”.
